Assay results as given in patent publication US20250352445A1, “COMPOSITIONS FOR SEBUM CONTROL” (Dyson Operations Pte. Ltd., priority 2022, published 2025).

Test system: Primary sebocytes
Assay: Lipid reduction in primary sebocytes, AdipoRed dye, mean fluorescence intensity by flow cytometry
Type: cell-based, human
Conditions: primary sebocytes incubated 3 days, 10 μM for the compound, 31.25 μg/mL for the extract, average of 10,000 cells
Protocol: Primary sebocytes were derived from the forehead of a person. The same cell line was used in all experiments. Flow cytometry experiments were conducted on the BD LSR Fortessa X-20 as follows: Sebocytes stained with a lipid dye (AdipoRed™) were first analyzed according to size and granularity with only single cells selected for AdipoRed™ signal intensity measurement. […] Cells treated with compositions of the invention were compared to vehicle-treated cells to determine the percentage of lipid reduction. […] The cells were washed with PBS buffer [5 mL for a 10 cm culture plate] and then incubated at 37° C. with 0.125% Trypsin-EDTA (Gibco, 15400054) [2 mL of Trypsin for a 10 cm culture plate] for 5-10 minutes. […] When all cells had detached, fixative solution (250 μL; […] The tubes were stored on ice before flow cytometry. Mean fluorescence intensity of the lipid signal can be obtained from the flow cytometer plot which are used to determine the inhibitory effect of the compounds on the sebocytes. The lipid reduction effects of the compositions of the invention were measured against DMSO as a negative control, and against the known lipid-reducing compounds epigallocatechin gallate (EGCG) and salicylic acid (SA) as positive controls. The results are shown in Table 3 and FIGS. 1 to 7.

In the case of `O=C(O[C@@H]1Cc2c(O)cc(O)cc2O[C@@H]1c1cc(O)c(O)c(O)c1)c1cc(O)c(O)c(O)c1` [EGCG, epigallocatechin gallate], the “Percentage Reduction in Mean Fluorescence Intensity (Against DMSO Control)” value is reported as 13.4%.
